According to patent US6346613B1, “Composition and method for enhancing paracellular transport across cell layers” (Elan Corporation, plc, priority 1997, dated 2002):
Where “and” joins values, the source holds several entries; their conditions need not be identical. Identical values can stand only once.

Legend:
[1] = system: Caco-2 monolayers; test: Transepithelial electrical resistance (TER) of Caco-2 monolayers on snapwells; assay type: cell-based, Human; parameters: unit not given beside the values; settings: Experiment 1, per snapwell, treatment with lipofectamine + oligonucleotide
Protocol: All solutions were warmed to 37° C. before use.

[2] = system: polarized Caco-2 cells
Protocol: Human intestinal Caco-2 cells were grown using standard techniques well known to those skilled in the art. The cells were seeded onto polycarbonate filters (Costar Snapwells; diameter=12 mm; area=1.13 cm^2; pore size=0.4m) at a density of 0.5×10^6 cm^2. For antisense oligonucleotide studies, 18-25 day old cell monolayers were used which have transepithelial electrical resistance (TER) measurements in the range 200-400 cm^2.
All incubations were at 37° C. in 5% CO2 atmosphere. All solutions were warmed to 37° C. before use. The following procedure was carried out once a day over three days. After reading the TER, the cells were washed once and incubated in a reduced serum medium (RSM; Opti-MEM 1 with GlutaMax 1; Gibco-BRL) for 30 minutes. Meanwhile, the lipofectamine-oligonucleotide complex was allowed to form at room temperature. Lipofectamine (20 μl/snapwell; Gibco BRL CN. 18324-012) was mixed with occludin antisense DNA oligonucleotide, with occludin scrambled oligonucleotide or with water control in RSM.
The lipofectin:oligonucleotide complex was added to the apical surface of the snapwells and the cells were incubated for 2 hours. The apical and basolateral media were then replaced with normal medium (except on day 4). After the 2 hour incubation on day 3, transepithelial flux of ^3H-mannitol was measured.
Caco-2 cells were washed once in buffered Hank's balanced salt solution (bHBSS; Gibco CN.14065-031; supplemented with 0.011M glucose, 15 mM HEPES acid [3.575 g/l; Sigma CN.H3375], 10 mM HEPES base [2.603 g/l; Sigma CN. H1016]) and were incubated 30 minutes. The apical reservoir bHBSS was replaced with 1 ml buffered HBSS containing 1 μCi/ml of the hydrophilic marker ^3H-mannitol (New England Biolabs). […] The samples were added to 4 ml scintillation fluid and radioactivity for each vial counted on a scintillation counter.
Fully differentiated Caco-2 monolayers were grown as in Example 1. […] On day 4, [^3H]-mannitol was applied to the apical domain and flux was determined by measuring the radioactivity (cpm) transferred to the basolateral reservoir over 90 minutes as in Example 3. […]

[3] = Experiment 1, [3H]-mannitol, 90 minutes, Caco-2

Substance	TER ([1]; listed as Lipofectamine + Occludin Antisense)	increase in flux relative to no oligonucleotide [2, 3]	increase in flux relative to occludin scrambled oligonucleotide [2, 3]	mean increase in [3H]-mannitol flux relative to control scrambled sequence antisense DNA ([2]; Experiment 2 (FIG. 2), 500 μM, Caco-2 monolayers on snapwells)	TER ([1]; listed as Lipofectamine + Scrambled Antisense)
5′ AAG AGG CCT GGA TGA CA 3′ (antisense AAGAGGCCTGGATGACA; chemistry not given here) [occludin antisense oligonucleotide]	1260 and 1410	1.6 fold	1.6 fold	2.2 fold	–
5′ GCA AGT CAG GAC GTA GA 3′ (GCAAGTCAGGACGTAGA; chemistry not given here) [occludin scrambled oligonucleotide, reference compound]	–	–	–	–	1280 and 1700
